# Laboratory results taken from patent publication US20240390464A1, “Treatment of Adults With Overweight or Obesity With or Without Weight-Related Comorbidities” (Carmot Therapeutics Inc., priority 2023, published 2024).
# Numbered stars: 1 amine (or outer) side, 2 acyl side, 3 side chain; on linkers, the order of the positions; unused ones are H or OH. Square brackets hold non-standard residues; d marks the D form. Side chains are listed from the residue outwards. Peptide text beside a SMILES is read from it. * marks the point of attachment. Isobutyryl(2-(3-CN-5-F-Ph)) = CC(C)(C(=O)*)c1cc(F)cc(C#N)c1; C20 diacid = O=C(O)CCCCCCCCCCCCCCCCCCC(=O)*; γGlu = O=C(O)[C@H](CCC(=O)[*:2])N[*:1]; AEEA = NCCOCCOCC(=O)O; Aib = CC(C)(N)C(=O)O; βAla = NCCC(=O)O
# Experiment: Phase 1 SAD Cohorts 1-5: safety and tolerability (adverse events)
# Format: in vivo, human
# Conditions: for AE: Abdominal bloating / AE: Abdominal cramp / AE: Abdominal cramp with loose bowel / AE: Abdominal pain / AE: Abnormal LFTs / AE: Constipation / AE: Diarrhea / AE: Dyspepsia / AE: Dysphasia / AE: Early satiety / AE: Emesis / AE: Exacerbated GERD / AE: Fatigue / AE: Headache / AE: Indigestion / AE: Lethargy / AE: Loose bowel motion / AE: Loose stools / AE: Loss of Appetite / AE: Microscopic hematuria / AE: Nausea / AE: Reduced appetite / AE: Reduced bowel motion / AE: Reflux / AE: Throat discomfort / AE: Vomiting / Life-threatening TEAE / Moderate TEAEs / Related TEAEs / Serious TEAEs / Severe TEAEs / TEAE leading to death / TEAEs: N = 8, blinded
# Description: This Example outlines the protocol for a Phase 1 randomized, double-blind, placebo-controlled study to evaluate the safety, tolerability, pharmacokinetics, and pharmacodynamics of CT-388 in otherwise healthy overweight and obese adult participants and in obese patients with type 2 diabetes mellitus.
# The primary objective of this study is to determine the safety and tolerability of CT-388 in otherwise healthy overweight and obese adult participants when administered as a single dose of 0.5, 2.0, 5.0, 6.0, or 7.5 mg.
# Safety and tolerability will be assessed by monitoring adverse events (AE) including local injection-site reactions, measuring vital signs and ECGs, and performing clinical laboratory blood and urine analyses.
# • Cohort 1: One dose containing 0.5 mg of CT-388 or matched placebo administered subcutaneously in the abdomen • Cohort 2: One dose containing 2.0 mg of CT-388 or matched placebo administered subcutaneously in the abdomen • Cohort 3: One dose containing 5.0 mg of CT-388 or matched placebo administered subcutaneously in the abdomen • Cohort 4: One dose containing 7.5 mg of CT-388 or matched placebo administered subcutaneously in the abdomen • Cohort 5: One dose containing 6.0 mg of CT-388 or matched placebo administered subcutaneously in the abdomen
# A Phase 1, randomized, placebo-controlled, double-blind study was conducted where single ascending doses (SAD; n=40; 0.5-7.5 mg) and multiple ascending doses (MAD; n=24; 5-12 mg via titration in 3 cohorts) were administered as described in Example 1 to overweight/obese adults.
# [1] = Cohort 1, 0.5 mg/Placebo single SC dose
# [2] = Cohort 2, 2 mg/Placebo single SC dose
# [3] = Cohort 3, 5 mg/Placebo single SC dose
# [4] = Cohort 4, 7.5 mg/Placebo single SC dose
# [5] = Cohort 5, 6 mg/Placebo single SC dose
smiles,measurement,setting,value
CC[C@H](C)[C@H](NC(=O)[C@H](CC(C)C)NC(=O)[C@H](Cc1c[nH]c2ccccc12)NC(=O)[C@H](CCC(N)=O)NC(=O)[C@@H](NC(=O)[C@H](Cc1ccccc1)NC(=O)[C@H](C)NC(=O)[C@H](CCCCNC(=O)COCCOCCNC(=O)COCCOCCNC(=O)CC[C@H](NC(=O)CCCCCCCCCCCCCCCCCCC(=O)O)C(=O)O)NC(=O)[C@H](CCC(N)=O)NC(=O)[C@H](C)NC(=O)[C@@H](NC(=O)[C@H](CCCCN)NC(=O)[C@H](CC(=O)O)NC(=O)[C@H](CC(C)C)NC(=O)C(C)(C)NC(=O)[C@@H](NC(=O)[C@H](CO)NC(=O)[C@H](Cc1ccc(O)cc1)NC(=O)[C@H](CC(=O)O)NC(=O)[C@H](CO)NC(=O)[C@@H](NC(=O)[C@H](Cc1ccccc1)NC(=O)[C@@H](NC(=O)CNC(=O)[C@H](CCC(=O)O)NC(=O)CCNC(=O)C(C)(C)c1cc(F)cc(C#N)c1)[C@@H](C)O)[C@@H](C)O)[C@@H](C)CC)[C@@H](C)CC)C(C)C)C(=O)N[C@@H](C)C(=O)NCC(=O)NCC(=O)N1CCC[C@H]1C(=O)N[C@@H](CO)C(=O)N[C@@H](CO)C(=O)NCC(=O)N[C@@H](C)C(=O)N1CCC[C@H]1C(=O)N1CCC[C@H]1C(=O)N1CCC[C@H]1C(=O)N[C@@H](CO)C(N)=O [CT-388] ({Isobutyryl(2-(3-CN-5-F-Ph))-βAla}-EGTFTSDYSI[Aib]LDKIAQK([AEEA-AEEA-γGlu-C20 diacid])AFVQWLIAGGPSSGAPPPS-NH2),AE: Abdominal bloating,[1],0
same,AE: Abdominal cramp,[1],0
same,AE: Abdominal cramp with loose bowel,[1],0
same,AE: Abdominal pain,[1],0
same,AE: Abnormal LFTs,[1],0
same,AE: Constipation,[1],0
same,AE: Diarrhea,[1],0
same,AE: Dyspepsia,[1],0
same,AE: Dysphasia,[1],0
same,AE: Early satiety,[1],0
same,AE: Emesis,[1],0
same,AE: Exacerbated GERD,[1],0
same,AE: Fatigue,[1],0
same,AE: Headache,[1],0
same,AE: Indigestion,[1],0
same,AE: Lethargy,[1],0
same,AE: Loose bowel motion,[1],0
same,AE: Loose stools,[1],0
same,AE: Loss of Appetite,[1],0
same,AE: Microscopic hematuria,[1],0
same,AE: Nausea,[1],0
same,AE: Reduced appetite,[1],0
same,AE: Reduced bowel motion,[1],0
same,AE: Reflux,[1],0
same,AE: Throat discomfort,[1],0
same,AE: Vomiting,[1],0
same,Life-threatening TEAE,[1],0
same,Moderate TEAEs,[1],0
same,Related TEAEs,[1],0
same,Serious TEAEs,[1],0
same,Severe TEAEs,[1],0
same,TEAE leading to death,[1],0
same,TEAEs,[1],8
same,AE: Abdominal bloating,[2],0
same,AE: Abdominal cramp,[2],0
same,AE: Abdominal cramp with loose bowel,[2],2 (25.0%)
same,AE: Abdominal pain,[2],0
same,AE: Abnormal LFTs,[2],0
same,AE: Constipation,[2],2 (25.0%)
same,AE: Diarrhea,[2],0
same,AE: Dyspepsia,[2],0
same,AE: Dysphasia,[2],0
same,AE: Early satiety,[2],1 (12.5%)
same,AE: Emesis,[2],0
same,AE: Exacerbated GERD,[2],0
same,AE: Fatigue,[2],2 (25.0%)
same,AE: Headache,[2],1 (12.5%)
same,AE: Indigestion,[2],0
same,AE: Lethargy,[2],1 (12.5%)
same,AE: Loose bowel motion,[2],0
same,AE: Loose stools,[2],0
same,AE: Loss of Appetite,[2],2 (25.0%)
same,AE: Microscopic hematuria,[2],0
same,AE: Nausea,[2],0
same,AE: Reduced appetite,[2],0
same,AE: Reduced bowel motion,[2],0
same,AE: Reflux,[2],0
same,AE: Throat discomfort,[2],0
same,AE: Vomiting,[2],0
same,Life-threatening TEAE,[2],0
same,Moderate TEAEs,[2],1
same,Related TEAEs,[2],6
same,Serious TEAEs,[2],0
same,Severe TEAEs,[2],0
same,TEAE leading to death,[2],0
same,TEAEs,[2],8
same,AE: Abdominal bloating,[3],0
same,AE: Abdominal cramp,[3],0
same,AE: Abdominal cramp with loose bowel,[3],0
same,AE: Abdominal pain,[3],0
same,AE: Abnormal LFTs,[3],0
same,AE: Constipation,[3],0
same,AE: Diarrhea,[3],0
same,AE: Dyspepsia,[3],1 (12.5%)
same,AE: Dysphasia,[3],1 (12.5%)
same,AE: Early satiety,[3],0
same,AE: Emesis,[3],2 (25.0%)
same,AE: Exacerbated GERD,[3],0
same,AE: Fatigue,[3],0
same,AE: Headache,[3],0
same,AE: Indigestion,[3],1 (12.5%)
same,AE: Lethargy,[3],0
same,AE: Loose bowel motion,[3],0
same,AE: Loose stools,[3],0
same,AE: Loss of Appetite,[3],1 (12.5%)
same,AE: Microscopic hematuria,[3],1 (12.5%)
same,AE: Nausea,[3],0
same,AE: Reduced appetite,[3],0
same,AE: Reduced bowel motion,[3],0
same,AE: Reflux,[3],0
same,AE: Throat discomfort,[3],0
same,AE: Vomiting,[3],0
same,Life-threatening TEAE,[3],0
same,Moderate TEAEs,[3],0
same,Related TEAEs,[3],4
same,Serious TEAEs,[3],0
same,Severe TEAEs,[3],0
same,TEAE leading to death,[3],0
same,TEAEs,[3],6
same,AE: Abdominal bloating,[4],1 (12.5%)
same,AE: Abdominal cramp,[4],1 (12.5%)
same,AE: Abdominal cramp with loose bowel,[4],0
same,AE: Abdominal pain,[4],0
same,AE: Abnormal LFTs,[4],1 (12.5%)
same,AE: Constipation,[4],0
same,AE: Diarrhea,[4],2 (25.0%)
same,AE: Dyspepsia,[4],0
same,AE: Dysphasia,[4],0
same,AE: Early satiety,[4],0
same,AE: Emesis,[4],0
same,AE: Exacerbated GERD,[4],1 (12.5%)
same,AE: Fatigue,[4],0
same,AE: Headache,[4],2 (25.0%)
same,AE: Indigestion,[4],0
same,AE: Lethargy,[4],0
same,AE: Loose bowel motion,[4],0
same,AE: Loose stools,[4],1 (12.5%)
same,AE: Loss of Appetite,[4],1 (12.5%)
same,AE: Microscopic hematuria,[4],0
same,AE: Nausea,[4],6 (75.0%)
same,AE: Reduced appetite,[4],2 (25.0%)
same,AE: Reduced bowel motion,[4],1 (12.5%)
same,AE: Reflux,[4],2 (25.0%)
same,AE: Throat discomfort,[4],1 (12.5%)
same,AE: Vomiting,[4],3 (37.5%)
same,Life-threatening TEAE,[4],0
same,Moderate TEAEs,[4],5
same,Related TEAEs,[4],7
same,Serious TEAEs,[4],1
same,Severe TEAEs,[4],1
same,TEAE leading to death,[4],0
same,TEAEs,[4],8
same,AE: Abdominal bloating,[5],0
same,AE: Abdominal cramp,[5],0
same,AE: Abdominal cramp with loose bowel,[5],0
same,AE: Abdominal pain,[5],1 (12.5%)
same,AE: Abnormal LFTs,[5],0
same,AE: Constipation,[5],1 (12.5%)
same,AE: Diarrhea,[5],0
same,AE: Dyspepsia,[5],0
same,AE: Dysphasia,[5],0
same,AE: Early satiety,[5],0
same,AE: Emesis,[5],0
same,AE: Exacerbated GERD,[5],0
same,AE: Fatigue,[5],0
same,AE: Headache,[5],1 (12.5%)
same,AE: Indigestion,[5],0
same,AE: Lethargy,[5],0
same,AE: Loose bowel motion,[5],1 (12.5%)
same,AE: Loose stools,[5],0
same,AE: Loss of Appetite,[5],1 (12.5%)
same,AE: Microscopic hematuria,[5],0
same,AE: Nausea,[5],2 (25.0%)
same,AE: Reduced appetite,[5],1 (12.5%)
same,AE: Reduced bowel motion,[5],0
same,AE: Reflux,[5],0
same,AE: Throat discomfort,[5],0
same,AE: Vomiting,[5],2 (25.0%)
same,Life-threatening TEAE,[5],0
same,Moderate TEAEs,[5],2
same,Related TEAEs,[5],4
same,Serious TEAEs,[5],1
same,Severe TEAEs,[5],1
same,TEAE leading to death,[5],0
same,TEAEs,[5],6
same,safety and tolerability,"SAD Cohorts 1-5, single SC dose 0.5-7.5 mg, preliminary and blinded data",generally well-tolerated
